The values that follow come from US20110160196A1, “FACTOR XA INHIBITORS” (Millennium Pharmaceuticals, Inc., priority 2007, published 2011).

Structures are written as SMILES.

In this test the target is T1, human plasma protein factor Xa (Homo sapiens, UniProt P00742).
T1 construct: The human plasma protein factor Xa was purchased; purchased Haematologic Technologies (Essex Junction, Vt.); host or cells: human plasma
T1 sequence (P00742 235-488 limits assumed): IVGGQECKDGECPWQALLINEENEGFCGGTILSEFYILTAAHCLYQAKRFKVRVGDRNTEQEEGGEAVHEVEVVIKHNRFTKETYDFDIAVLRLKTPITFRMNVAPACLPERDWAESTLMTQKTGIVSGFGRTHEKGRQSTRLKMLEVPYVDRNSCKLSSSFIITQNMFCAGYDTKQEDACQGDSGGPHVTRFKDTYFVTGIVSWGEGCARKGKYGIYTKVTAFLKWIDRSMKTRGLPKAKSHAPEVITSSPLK
T1 sequence (P00742 41-179 partner limits assumed): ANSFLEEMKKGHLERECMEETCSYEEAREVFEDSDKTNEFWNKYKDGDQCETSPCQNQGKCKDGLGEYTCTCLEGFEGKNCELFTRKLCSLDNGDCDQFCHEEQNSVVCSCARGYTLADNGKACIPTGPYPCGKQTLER
Description: Factor Xa IC50 determination (cleavage of paranitroanilide substrate S-2765). As to conditions: factor Xa 1 nM, S-2765 100 μM, Tris buffered saline pH 7.4, read at 405 nm. It is filed as biochemical. The gist of the method: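 Human plasma factor Xa (1 nM) preincubated 5 min at room temperature with inhibitor (0.01 nM–10 μM) in Tris-buffered saline pH 7.4 with 5 mM CaCl2, 0.1% BSA, 5% DMSO. S-2765 added at 100 μM final; pNA release followed at 405 nm for 2 min. IC50 from four-parameter fit of initial velocities.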
In the case of `O=C(NCc1cn(-c2ccc(-n3ccccc3=O)cc2N2CCOCC2)nn1)c1ccc(Cl)s1` [Compound 5, 5-Chloro-N-((1-(2-morpholino-4-(2-oxopyridin-1(2H)-yl)phenyl)-1H-1,2,3-triazol-4-yl)methyl)thiophene-2-carboxamide], the IC50 (in general, the point on the concentration scale where inhibition reaches its midpoint) is at most 100 nM.

For `CN(C)CCN(C)C(=O)c1cc(-n2ccccc2=O)ccc1-n1cc(CNC(=O)c2ccc(Cl)s2)nn1` [Compound 111, 5-Chloro-N-((1-(2-((2-(dimethylamino)ethyl)(methyl)carbamoyl)-4-(2-oxopyridin-1(2H)-yl)phenyl)-1H-1,2,3-triazol-4-yl)methyl)thiophene-2-carboxamide], the IC50 is 100 to 500 nM.

`CNCCN(C)C(=O)c1cc(-n2ccccc2=O)ccc1-n1cc(CNC(=O)c2ccc(Cl)s2)nn1` [Compound 110, 5-Chloro-N-((1-(2-(methyl(2-(methylamino)ethyl)carbamoyl)-4-(2-oxopyridin-1(2H)-yl)phenyl)-1H-1,2,3-triazol-4-yl)methyl)thiophene-2-carboxamide] displayed an IC50 of 100 to 500 nM.

Molecule `O=C(NCc1cn(-c2ccc(-n3ccccc3=O)cc2OCc2nnn[nH]2)nn1)c1ccc(Cl)s1` [Compound 98, N-((1-(2-((1H-Tetrazol-5-yl)methoxy)-4-(2-oxopyridin-1(2H)-yl)phenyl)-1H-1,2,3-triazol-4-yl)methyl)-5-chlorothiophene-2-carboxamide] showed an IC50 of at most 100 nM.

For the molecule `COCCN(C)c1cc(-n2ccccc2=O)ccc1-n1cc(CNC(=O)c2ccc(Cl)s2)nn1` [Compound 29, 5-Chloro-N-((1-(2-((2-mcthoxyethyl)(methyl)amino)-4-(2-oxopyridin-1(2H)-yl)phenyl)-1H-1,2,3-triazol-4-yl)methyl)thiophene-2-carboxamide], the IC50 is at most 100 nM.

With `O=C(NCc1cn(-c2ccc(-n3ccccc3=O)cc2OCc2cscn2)nn1)c1ccc(Cl)s1` [Compound 171, 5-Chloro-N-((1-(4-(2-oxopyridin-1(2H)-yl)-2-(thiazol-4-ylmethoxy)phenyl)-1H-1,2,3-triazol-4-yl)methyl)thiophene-2-carboxamide], the IC50 is at most 100 nM.

With `O=C(NCc1cn(-c2ccc(-n3ccccc3=O)cc2-c2ccc(Cl)nc2)nn1)c1ccc(Cl)s1` [Compound 135, 5-Chloro-N-((1-(2-(6-chloropyridin-3-yl)-4-(2-oxopyridin-1(2H)-yl)phenyl)-1H-1,2,3-triazo1-4-yl)methyl)thiophene-2-carboxamide], the IC50 is at most 100 nM.

As for `Cc1cc(COc2cc(-n3ccccc3=O)ccc2-n2cc(CNC(=O)c3ccc(Cl)s3)nn2)no1` [Compound 179, 5-Chloro-N-((1-(2-((5-methylisoxazol-3-yl)methoxy)-4-(2-oxopyridin-1(2H)-yl)phenyl)-1H-1,2,3-triazol-4-yl)methyl)thiophene-2-carboxamide], the IC50 is at most 100 nM.

Regarding `O=C(NCc1cn(-c2ccc(-n3ccccc3=O)cc2OCCc2cccnc2)nn1)c1ccc(Cl)s1` [Compound 174, 5-Chloro-N-((1-(4-(2-oxopyridin-1(2H)-yl)-2-(2-(pyridin-3-yl)ethoxy)phenyl)-1H-1,2,3-triazol-4-yl)methyl)thiophene-2-carboxamide], the IC50 is at most 100 nM.

Take `CNc1cc(-n2ccccc2=O)ccc1-n1cc(CNC(=O)c2ccc(Cl)s2)nn1` [Compound 1, 5-Chloro-N-((1-(2-(methylamino)-4-(2-oxopyridin-1(2H)-yl)phenyl)-1H-1,2,3-triazol-4-yl)methyl)thiophene-2-carboxamide]: the IC50 was at most 100 nM.

Take `O=C(NCc1cn(-c2ccc(-n3ccccc3=O)cc2OCc2nc3ccccc3[nH]2)nn1)c1ccc(Cl)s1` [Compound 173, N-((1-(2-((1H-Benzo[d]imidazol-2-yl)methoxy)-4-(2-oxopyridin-1(2H)-yl)phenyl)-1H-1,2,3-triazol-4-yl)methyl)-5-chlorothiophene-2-carboxamide]: the IC50 is at most 100 nM.

With `CN(C)c1cc(-c2cc(-n3ccccc3=O)ccc2-n2cc(CNC(=O)c3ccc(Cl)s3)nn2)ccn1` [Compound 140, 5-Chloro-N-((1-(2-(2-(dimethylamino)pyridin-4-yl)-4-(2-oxopyridin-1(2H)-yl)phenyl)-1H-1,2,3-triazol-4-yl)methyl)thiophene-2-carboxamide], the IC50 was at most 100 nM.

`O=C(NCc1cn(-c2ccc(-n3ccccc3=O)cc2OCCCN2CCCC2)nn1)c1ccc(Cl)s1` [Compound 93, 5-Chloro-N-((1-(4-(2-oxopyridin-1(2H)-yl)-2-(3-(pyrrolidin-1-yl)propoxy)phenyl)-1H-1,2,3-triazol-4-yl)methyl)thiophene-2-carboxamide] had an IC50 of at most 100 nM.

Regarding `O=C(NCc1cn(-c2ccc(-n3ccccc3=O)cc2OC[C@H](O)CO)nn1)c1ccc(Cl)s1` [Compound 78, 5-Chloro-N-((1-(2-((R)-2,3-dihydroxypropoxy)-4-(2-oxopyridin-1(2H)-yl)phenyl)-1H-1,2,3-triazol-4-yl)methyl)thiophene-2-carboxamide], the IC50 was at most 100 nM.
